{"source": "paper PMC11012721", "about": "(International Journal of Molecular Sciences, 2024)", "key": {"[1]": {"test_system": "mice", "experiment": "passive avoidance test, SCOP-induced long-term memory impairment", "type": "in vivo", "method": "(§1) The passive avoidance test in mice is used to assess fear-related learning and memory. The apparatus consists of an acrylic box with two chambers: white (10 × 13 × 15 cm) and black (25 × 20 × 15 cm). During the experiment, the white chamber is illuminated with a bright light (8 W). The black chamber, which is equipped with an electric grid base, is connected to the illuminated chamber.\n(§2) A pre-test (training) was carried out before the experiments. Each mouse was placed individually in the illuminated chamber of the device and allowed to explore it within 30 s. The guillotine door separating the two chambers was then opened. The mouse was then allowed to enter the black chamber, where it was immediately treated with an electric shock (0.2 mA) for 2 s. The latency to enter the black chamber was recorded (TL1). During the retention trial, which was performed 24 h after the pre-test, the same mouse was again placed in the lighted chamber of the device. The time required to enter the black chamber was recorded (TL2). In contrast to the pre-test, no foot shock was administered this time. […] The index of latency (IL) was calculated as follows:IL = (TL2 − TL1)/TL1(1)\n(§3) After the 30 min delay, the pre-test was performed."}, "[2]": {"test_system": "mice", "experiment": "passive avoidance test, LPS-induced long-term memory impairment", "type": "in vivo", "conditions": "LPS 2.5 mg/kg ip", "method": "as §1, §2, §3"}, "[3]": {"experiment": "HPLC-ESI-QTOF-MS/MS determination of astragaloside IV in organs post mortem", "type": "in vivo, mice", "conditions": "for content in kidney (Av) / content in liver (Av) / content in spleen (Av) / content in brain (Av): 1 h after injection, n = 3", "method": "They were then homogenized in an Eppendorff plastic vial kept in ice. The homogenates of the organs were vortexed with 200 µL of 50% ethanol for 10 min. The Eppendorff vials were centrifuged at 3500 rpm for 5 min and the supernatant was filtered through a nylon syringe filter with a diameter of 0.22 µm into the autosampler vials with the glass inserts. […] Due to the small size and mass of brains, AIV was quantified in these organs after addition of the reference compound (Sigma Aldrich, St. Louis, MO, USA) to the samples. […] The peak areas of astragaloside IV in the brains were compared with the blank solution of the standard compound. The levels of astragaloside IV in the other organs were measured without the presence of the reference compound.\n(§4) The liquid chromatograph consisted of a degasser, a binary pump, a column oven, an autosampler and the high-resolution mass detector QTOF-MS/MS with an electrospray ionization source. The chromatographic column Zorbax Eclipse Plus (Agilent Technologies, CA, USA) (150 mm × 2.1 mm, 3.2 um, RP-18) was used to separate the metabolites of the injected matrix in the following gradient of acetonitrile with 0.1% formic acid (solvent B) in the 0.1% aqueous solution of formic acid (solvent A): 0 min—2% B, 2 min—10% B, 6 min—40% B, 35–37 min—95% B and 37.5 min—2% B. The analysis time was set to 43 min, the follow-up time to 5 min, the flow rate to 0.2 mL/min and the injection volume to 10 μL. The detailed settings of the mass spectrometer were as follows: a capillary voltage of 3000 V, a skimmer voltage of 65 V, a mass range of 100–1200 m/z, a collision energy of 10 and 20 V, a nebulizer pressure of 30 psig, a gas flow rate of 12 L/min and gas and sheath gas temperatures of 250 and 325 °C. The Mass Hunter Workstation (version B.10.00) from Agilent Technologies was used to record and process the data obtained. […] For each of the concentrations, the average values of the content of the tested substance in the respective organ were calculated. The standard deviation (SD) values were calculated in each case. The recorded mass chromatograms for the brain samples (injection with saline: n = 2, injection with LPS: n = 3 and 25 mg/kg b.w. with LPS injection: n = 3) were analyzed with the Mass Profiler Professional Program 15.1 from Agilent Technologies (Santa Clara, CA, USA) with a built-in pathways analysis module that uses the Kyoto Encyclopedia of Genes and Genomes (KEGG) database to detect the effects of the injected substance on molecular mechanisms. First, the raw data from the recorded chromatograms were exported in csv format and analyzed in the program. […] Of the 517 entities analyzed, eleven differentiating m/z signals were detected in the samples, with p < 0.05 and a fold change of 2 settings. One of the differentiating signals was phosphatydylcholine, whose behavior in the tested samples was analyzed with the pathways module."}, "[4]": {"test_system": "phosphatidylcholine PC(22:4(7Z, 10Z, 13Z, 16Z)/16:0) level", "experiment": "phosphatidylcholine level in brain samples, pathway analysis (Mass Profiler Professional, KEGG)", "type": "in vivo, mice", "conditions": "for effect on phosphatidylcholine level in brains: LPS model", "method": "as §4"}, "[5]": {"test_system": "AChE", "conditions": "previous studies; cited from earlier work"}, "[6]": {"parameters": "method as in Zhang et al. [60]", "conditions": "ref Zhang et al. [60]; cited from earlier work"}, "[7]": {"test_system": "mice", "experiment": "locomotor activity test (photoresistance actimeters)", "conditions": "6, 12.5 or 25 mg/kg ip; 30 min measurement; p > 0.05"}, "[8]": {"conditions": "AIV smaller doses (6, 12.5 mg/kg ip), p > 0.05"}, "[9]": {"conditions": "AIV 6, 12.5 or 25 mg/kg ip, p > 0.05 vs LPS"}}, "data": [{"compound": "CC(C)(O)[C@@H]1CC[C@](C)([C@H]2[C@@H](O)C[C@@]3(C)[C@@H]4C[C@H](O[C@@H]5O[C@H](CO)[C@@H](O)[C@H](O)[C@H]5O)[C@H]5C(C)(C)[C@@H](O[C@@H]6OC[C@@H](O)[C@H](O)[C@H]6O)CC[C@@]56C[C@@]46CC[C@]23C)O1", "note": "[AIV, astragaloside IV]", "values": [{"measurement": "attenuation of SCOP-impaired acquisition of long-term memory", "setting": "[1]; AIV 25 mg/kg ip before SCOP 1 mg/kg ip, p < 0.001 vs SCOP", "value": "attenuated"}, {"measurement": "attenuation of SCOP-impaired consolidation of long-term memory", "setting": "[1]; AIV 25 mg/kg ip, SCOP 1 mg/kg ip, p < 0.01 vs SCOP", "value": "attenuated"}, {"measurement": "attenuation of SCOP-impaired acquisition of long-term memory", "setting": "[1]; [8]", "value": "ineffective"}, {"measurement": "attenuation of SCOP-impaired consolidation of long-term memory", "setting": "[1]; [8]", "value": "ineffective"}, {"measurement": "effect of AIV itself on acquisition of long-term memory", "setting": "[1]; all doses tested (6, 12.5, 25 mg/kg ip), no SCOP, p < 0.001 vs control", "value": "improved acquisition"}, {"measurement": "attenuation of LPS-impaired acquisition of long-term memory", "setting": "[2]; [9]", "value": "did not attenuate"}, {"measurement": "attenuation of LPS-impaired consolidation of long-term memory", "setting": "[2]; [9]", "value": "did not attenuate"}, {"measurement": "content in kidney (Av)", "setting": "[3]; 6 mg/kg ip", "value": 0.0174, "unit": "mg/Organ"}, {"measurement": "content in liver (Av)", "setting": "[3]; 6 mg/kg ip", "value": 0.00411, "unit": "mg/Organ"}, {"measurement": "content in spleen (Av)", "setting": "[3]; 6 mg/kg ip", "value": 0.03766, "unit": "mg/Organ"}, {"measurement": "content in brain (Av)", "setting": "[3]; 12.5 mg/kg ip", "value": 0.00012, "unit": "mg/Organ"}, {"measurement": "content in kidney (Av)", "setting": "[3]; 12.5 mg/kg ip", "value": 0.03882, "unit": "mg/Organ"}, {"measurement": "content in liver (Av)", "setting": "[3]; 12.5 mg/kg ip", "value": 0.01084, "unit": "mg/Organ"}, {"measurement": "content in spleen (Av)", "setting": "[3]; 12.5 mg/kg ip", "value": 0.04919, "unit": "mg/Organ"}, {"measurement": "content in brain (Av)", "setting": "[3]; 25 mg/kg ip", "value": 0.00023, "unit": "mg/Organ"}, {"measurement": "content in kidney (Av)", "setting": "[3]; 25 mg/kg ip", "value": 0.08892, "unit": "mg/Organ"}, {"measurement": "content in liver (Av)", "setting": "[3]; 25 mg/kg ip", "value": 0.02316, "unit": "mg/Organ"}, {"measurement": "content in spleen (Av)", "setting": "[3]; 25 mg/kg ip", "value": 0.06844, "unit": "mg/Organ"}, {"measurement": "dose dependence of concentration in soft organ tissues", "setting": "[3]; 6, 12.5, 25 mg/kg ip", "value": "dose-dependent"}, {"measurement": "rank order of content in soft organs", "setting": "[3]; ip, mice, post mortem", "value": "highest content of the saponin was found in the kidneys, then in the spleen, liver and brain"}, {"measurement": "effect on phosphatidylcholine level in brains", "setting": "[4]; astragaloside IV 25 mg/kg b.w. ip", "value": "restored the level of the compound to that of saline administration"}, {"measurement": "AChE inhibition", "setting": "[5]", "value": "inhibitor of AChE"}, {"measurement": "route of excretion", "setting": "[6]", "value": "excreted slowly via hepatic clearance"}, {"measurement": "effect on locomotor activity", "setting": "[7]", "value": "no effect"}]}, {"compound": "CN1[C@@H]2C[C@@H](OC(=O)[C@H](CO)c3ccccc3)C[C@H]1[C@@H]1O[C@@H]12", "note": "[SCOP, Scopolamine, reference compound]", "values": [{"measurement": "effect on memory acquisition and consolidation vs control mice", "setting": "[1]; SCOP 1 mg/kg ip, p < 0.001", "value": "impaired both memory acquisition and consolidation"}]}, {"compound": "lipopolysaccharide [LPS]", "values": [{"measurement": "effect on memory acquisition and consolidation vs control mice", "setting": "[2]; p < 0.001", "value": "impaired both memory acquisition and consolidation"}, {"measurement": "effect on phosphatidylcholine level in brains", "setting": "[4]", "value": "decrease the level of phosphatidylcholines"}, {"measurement": "Kennedy Pathway log2 (phosphatidylcholine level)", "setting": "[4]; brain samples, LPS group", "value": 0}, {"measurement": "One-Carbon Metabolism log2 (phosphatidylcholine level)", "setting": "[4]; brain samples, LPS group", "value": 0}]}]}
